“And” between values parts separate entries of the source, which are not always exact repeats. Equal entries are not always repeated.
Tests used:
PC-9 cells = assay: CCK-8 antiproliferation assay, PC-9; conditions: for IC50: PC-9, 48 h, read-out: IC50 (μM) PC-9; for Inhibitory efficacy: single repeats (Repeat 1-3), given as fraction
H1975 cells = assay: CCK-8 antiproliferation assay, H1975; conditions: for Inhibitory efficacy: H1975 cells; for IC50: NCI-H1975, 48 h, read-out: IC50 (μM) H1975, CCK-8, 48 h, average ± SD of three independent experiments
A549 cells = assay: CCK-8 antiproliferation assay, A549; conditions: for Inhibitory efficacy: A549 cells; for IC50: A549, 48 h, read-out: IC50 (μM) A549, CCK-8, 48 h, average ± SD of three independent experiments
wild-type EGFR = wild-type EGFR (Homo sapiens, UniProt P00533); assay: EGFR kinase assay (ELISA); conditions: for IC50: IC50 (μM) EGFR, ELISA, 3 μmol/L ATP; for A450: raw ELISA absorbance
wild-type EGFR, sequence (P00533 25-1210): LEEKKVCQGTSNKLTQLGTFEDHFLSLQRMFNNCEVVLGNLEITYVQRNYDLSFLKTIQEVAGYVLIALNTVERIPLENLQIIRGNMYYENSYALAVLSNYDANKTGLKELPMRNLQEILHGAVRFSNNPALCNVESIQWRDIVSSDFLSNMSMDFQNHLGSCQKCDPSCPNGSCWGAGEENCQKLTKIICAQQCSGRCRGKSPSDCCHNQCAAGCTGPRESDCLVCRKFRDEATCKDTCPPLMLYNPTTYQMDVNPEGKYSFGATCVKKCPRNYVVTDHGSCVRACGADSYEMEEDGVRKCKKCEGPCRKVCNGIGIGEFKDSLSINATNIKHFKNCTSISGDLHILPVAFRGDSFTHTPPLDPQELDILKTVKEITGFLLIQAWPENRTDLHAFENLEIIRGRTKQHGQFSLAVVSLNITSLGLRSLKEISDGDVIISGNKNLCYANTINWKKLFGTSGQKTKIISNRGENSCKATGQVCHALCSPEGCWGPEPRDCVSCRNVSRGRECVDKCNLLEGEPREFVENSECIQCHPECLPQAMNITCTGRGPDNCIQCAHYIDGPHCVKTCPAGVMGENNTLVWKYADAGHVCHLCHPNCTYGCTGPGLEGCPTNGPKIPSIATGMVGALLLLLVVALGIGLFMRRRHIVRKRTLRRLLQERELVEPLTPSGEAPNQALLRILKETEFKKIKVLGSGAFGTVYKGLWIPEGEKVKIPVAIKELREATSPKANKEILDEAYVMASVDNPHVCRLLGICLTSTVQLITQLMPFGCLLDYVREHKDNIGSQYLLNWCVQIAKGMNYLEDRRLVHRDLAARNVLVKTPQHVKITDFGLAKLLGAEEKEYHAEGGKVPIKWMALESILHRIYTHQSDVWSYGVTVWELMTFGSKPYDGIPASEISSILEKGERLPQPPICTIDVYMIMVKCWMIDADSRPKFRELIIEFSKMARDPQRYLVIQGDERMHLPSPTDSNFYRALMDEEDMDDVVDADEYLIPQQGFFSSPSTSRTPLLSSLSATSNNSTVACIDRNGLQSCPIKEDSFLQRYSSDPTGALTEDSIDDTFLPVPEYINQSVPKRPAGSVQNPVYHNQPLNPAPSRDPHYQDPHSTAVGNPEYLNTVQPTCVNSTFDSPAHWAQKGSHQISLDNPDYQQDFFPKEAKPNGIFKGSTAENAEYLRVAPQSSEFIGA
Description: The kinase enzyme of EGFR was purchased from Carna Bioscience (Kobe, Japan). A total of 10 ng/ml anti phosphotyrosine (PY713) antibody (abcam, Cambridge Science Park, United Kingdom) was precoated in 96-well ELISA plates. […] Then, a total of 3 μmol/L ATP was added and the reaction was continued for 2 h. […] After incubation, the wells were washed with PBS and then incubated with horseradish peroxidase (HRP)-conjugated streptavidin. The wells were visualized using 3,3′,5,5′-tetramethylbenzidine (TMB), and chromogenic reaction was ended with 2 mol/L H2SO4, the absorbance was read with a multimode plate reader (PerkinElmer, United States) at 450 nm.

H460 cells = assay: CCK-8 antiproliferation assay, H460; conditions: for Inhibitory efficacy: H460 cells; for Inhibitory efficacy / inhibition at 2 µM / inhibition at 4 µM / inhibition at 8 µM / inhibition at 16 µM: given as fraction, Repeat 1-3; for IC50 / inhibition at 2 µM / inhibition at 4 µM / inhibition at 8 µM / inhibition at 16 µM: Homo sapiens; for IC50: NCI-H460, 48 h, read-out: IC50 (μM) H460, CCK-8, 48 h, average ± SD of three independent experiments; for inhibition at 2 µM / inhibition at 4 µM / inhibition at 8 µM / inhibition at 16 µM: NCI-H460, read-out: Inhibitory efficacy, H460 cells
[1] = 1uM, given as fraction, Repeat 1-3
[2] = 2uM, given as fraction, Repeat 1-3
[3] = 4uM, given as fraction, Repeat 1-3
[4] = 8uM, given as fraction, Repeat 1-3
[5] = 16uM, given as fraction, Repeat 1-3
[6] = Homo sapiens, NCI-H1975, read-out: Inhibitory efficacy, H1975 cells, 2uM, given as fraction, Repeat 1-3
[7] = Homo sapiens, NCI-H1975, read-out: Inhibitory efficacy, H1975 cells, 4uM, given as fraction, Repeat 1-3
[8] = Homo sapiens, NCI-H1975, read-out: Inhibitory efficacy, H1975 cells, 8uM, given as fraction, Repeat 1-3
[9] = Homo sapiens, NCI-H1975, read-out: Inhibitory efficacy, H1975 cells, 16uM, given as fraction, Repeat 1-3
[10] = Homo sapiens, A549, read-out: Inhibitory efficacy, A549 cells, 2uM, given as fraction, Repeat 1-3
[11] = Homo sapiens, A549, read-out: Inhibitory efficacy, A549 cells, 4uM, given as fraction, Repeat 1-3
[12] = Homo sapiens, A549, read-out: Inhibitory efficacy, A549 cells, 8uM, given as fraction, Repeat 1-3
[13] = Homo sapiens, A549, read-out: Inhibitory efficacy, A549 cells, 16uM, given as fraction, Repeat 1-3
[14] = concentration 0.03 nM, one value per replicate column
[15] = concentration 0.03 nM, one value per replicate column, 3e-05 µM
[16] = concentration 0.3 nM, one value per replicate column
[17] = concentration 0.3 nM, one value per replicate column, 0.0003 µM
[18] = concentration 3 nM, one value per replicate column
[19] = concentration 3 nM, one value per replicate column, 0.003 µM
[20] = concentration 30 nM, one value per replicate column
[21] = concentration 30 nM, one value per replicate column, 0.03 µM
[22] = concentration 300 nM, one value per replicate column
[23] = concentration 300 nM, one value per replicate column, 0.3 µM
[24] = concentration 3000 nM, one value per replicate column
[25] = concentration 3000 nM, one value per replicate column, 3 µM
[26] = concentration 30000 nM, one value per replicate column
[27] = concentration 30000 nM, one value per replicate column, 30 µM

## COCCOc1cc2ncnc(Nc3cccc(-c4cn(-c5ccc(OC)cc5OC)nn4)c3)c2cc1OCCOC [e17, [6,7-Bis-(2-methoxy-ethoxy)-quinazolin-4-yl]-{3-[1-(2,4-dimethoxy-phenyl)-1H-[1,2,3]triazol-4-yl]-phenyl}-amine]
PC-9 cells; Homo sapiens
  IC50: > 100 µM
H1975 cells; [1]
  Inhibitory efficacy: 0.195 and 0.1523
H1975 cells; [2]
  Inhibitory efficacy: 0.402 and 0.2557
H1975 cells; [3]
  Inhibitory efficacy: 0.3137 and 0.2571
H1975 cells; [4]
  Inhibitory efficacy: 0.5 and 0.471
H1975 cells; [5]
  Inhibitory efficacy: 0.4476 and 0.4006
H1975 cells; Homo sapiens
  IC50: 18.3 ± 4.45 µM
H1975 cells; Homo sapiens, NCI-H1975, read-out: Inhibitory efficacy, H1975 cells, 1uM, given as fraction, Repeat 1-3
  inhibition at 1 µM: 23.1%
H1975 cells; [6]
  inhibition at 2 µM: 33.3%
H1975 cells; [7]
  inhibition at 4 µM: 29%
H1975 cells; [8]
  inhibition at 8 µM: 52.8%
H1975 cells; [9]
  inhibition at 16 µM: 47.1%
A549 cells; [1]
  Inhibitory efficacy: 0.282 and 0.1573
A549 cells; [2]
  Inhibitory efficacy: 0.4285 and 0.3755
A549 cells; [3]
  Inhibitory efficacy: 0.5452 and 0.5691
A549 cells; [4]
  Inhibitory efficacy: 0.5949 and 0.5372
A549 cells; [5]
  Inhibitory efficacy: 0.5916 and 0.6049
A549 cells; Homo sapiens
  IC50: 4.86 ± 0.6 µM
A549 cells; Homo sapiens, A549, read-out: Inhibitory efficacy, A549 cells, 1uM, given as fraction, Repeat 1-3
  inhibition at 1 µM: 15.3%
A549 cells; [10]
  inhibition at 2 µM: 40.1%
A549 cells; [11]
  inhibition at 4 µM: 55.6%
A549 cells; [12]
  inhibition at 8 µM: 58.9%
A549 cells; [13]
  inhibition at 16 µM: 65%
other
  melting point: 85 to 88 °C
wild-type EGFR
  IC50: 15.5 µM
wild-type EGFR; [14]
  inhibition at 30 pM: 13.7%
wild-type EGFR; [15]
  Inhibition: 9.36
wild-type EGFR; [16]
  inhibition at 0.0003 µM: 14.2%
wild-type EGFR; [17]
  Inhibition: 12.4795
wild-type EGFR; [18]
  inhibition at 0.003 µM: 14.4%
wild-type EGFR; [19]
  Inhibition: 19.0476
wild-type EGFR; [20]
  inhibition at 0.03 µM: 18.2%
wild-type EGFR; [21]
  Inhibition: 26.7652
wild-type EGFR; [22]
  inhibition at 0.3 µM: 32.9%
wild-type EGFR; [23]
  Inhibition: 32.1839
wild-type EGFR; [24]
  inhibition at 3 µM: 34.7%
wild-type EGFR; [25]
  Inhibition: 34.8112
wild-type EGFR; [26]
  inhibition at 30 µM: 60.1%
wild-type EGFR; [27]
  Inhibition: 58.1281
wild-type EGFR; concentration 0.0001 nM
  A450: 0.831 and 0.824
wild-type EGFR; concentration 0.03 nM
  A450: 0.745 and 0.767
wild-type EGFR; concentration 0.3 nM
  A450: 0.742 and 0.748
wild-type EGFR; concentration 3 nM
  A450: 0.741 and 0.708
wild-type EGFR; concentration 30 nM
  A450: 0.717 and 0.661
wild-type EGFR; concentration 300 nM
  A450: 0.625 and 0.628
wild-type EGFR; concentration 3000 nM
  A450: 0.614 and 0.612
wild-type EGFR; concentration 30000 nM
  A450: 0.455 and 0.47
H460 cells; 2uM
  Inhibitory efficacy: 0.3561 and 0.3949
  inhibition at 2 µM: 29.5%
H460 cells; 4uM
  Inhibitory efficacy: 0.5495 and 0.6263
  inhibition at 4 µM: 60.9%
H460 cells; 8uM
  Inhibitory efficacy: 0.7733 and 0.7776
  inhibition at 8 µM: 77.7%
H460 cells; 16uM
  Inhibitory efficacy: 0.8649 and 0.8113
  inhibition at 16 µM: 81.3%
H460 cells
  IC50: 3.18 ± 0.11 µM

## COCCOc1cc2ncnc(Nc3cccc(-c4cn(-c5ccccc5OC)nn4)c3)c2cc1OCCOC [e11, [6,7-Bis-(2-methoxy-ethoxy)-quinazolin-4-yl]-{3-[1-(2-methoxy-phenyl)-1H-[1,2,3]triazol-4-yl]-phenyl}-amine]
PC-9 cells; Homo sapiens
  IC50: 16 ± 1.04 µM
PC-9 cells; Homo sapiens, PC-9, read-out: Inhibitory efficacy, PC-9, 8uM, single repeats (Repeat 1-3), given as fraction
  inhibition at 8 µM: 27.4%
PC-9 cells; Homo sapiens, PC-9, read-out: Inhibitory efficacy, PC-9, 16uM, single repeats (Repeat 1-3), given as fraction
  inhibition at 16 µM: 46.7%
PC-9 cells; PC-9, 8uM, 8 µM
  Inhibitory efficacy: 0.2959 and 0.2658
PC-9 cells; PC-9, 16uM, 16 µM
  Inhibitory efficacy: 0.4848 and 0.4258
H1975 cells; [2]
  Inhibitory efficacy: 0.257 and 0.2168
H1975 cells; [3]
  Inhibitory efficacy: 0.213 and 0.192
H1975 cells; [4]
  Inhibitory efficacy: 0.4311 and 0.3814
H1975 cells; [5]
  Inhibitory efficacy: 0.6071 and 0.5938
H1975 cells; Homo sapiens
  IC50: 10.8 ± 1.57 µM
H1975 cells; [6]
  inhibition at 2 µM: 29.1%
H1975 cells; [7]
  inhibition at 4 µM: 32.2%
H1975 cells; [8]
  inhibition at 8 µM: 49.2%
H1975 cells; [9]
  inhibition at 16 µM: 59.9%
A549 cells; [2]
  Inhibitory efficacy: 0.1633 and 0.2142
A549 cells; [3]
  Inhibitory efficacy: 0.2462 and 0.3291
A549 cells; [4]
  Inhibitory efficacy: 0.4514 and 0.4662
A549 cells; [5]
  Inhibitory efficacy: 0.7059 and 0.6624
A549 cells; Homo sapiens
  IC50: 8.4 ± 0.29 µM
A549 cells; [10]
  inhibition at 2 µM: 20.1%
A549 cells; [11]
  inhibition at 4 µM: 25%
A549 cells; [12]
  inhibition at 8 µM: 52.7%
A549 cells; [13]
  inhibition at 16 µM: 68.7%
other
  melting point: 87 to 90 °C
wild-type EGFR
  IC50: 49.4 µM
wild-type EGFR; concentration 0.0001 nM (reference for normalisation), one value per replicate column
  inhibition at 100 fM: 0%
wild-type EGFR; [14]
  inhibition at 30 pM: 4.93%
wild-type EGFR; [15]
  Inhibition: 3.3195
wild-type EGFR; [16]
  inhibition at 0.0003 µM: 5.78%
wild-type EGFR; [17]
  Inhibition: 3.734
wild-type EGFR; [18]
  inhibition at 0.003 µM: 6.42%
wild-type EGFR; [19]
  Inhibition: 4.357
wild-type EGFR; [20]
  inhibition at 0.03 µM: 7.71%
wild-type EGFR; [21]
  Inhibition: 6.432
wild-type EGFR; [22]
  inhibition at 0.3 µM: 13.1%
wild-type EGFR; [23]
  Inhibition: 8.091
wild-type EGFR; [24]
  inhibition at 3 µM: 13.3%
wild-type EGFR; [25]
  Inhibition: 12.4481
wild-type EGFR; [26]
  inhibition at 30 µM: 46.9%
wild-type EGFR; [27]
  Inhibition: 45.2282
wild-type EGFR; concentration 0.0001 nM
  A450: 0.614 and 0.641
wild-type EGFR; concentration 0.03 nM
  A450: 0.591 and 0.625
wild-type EGFR; concentration 0.3 nM
  A450: 0.587 and 0.623
wild-type EGFR; concentration 3 nM
  A450: 0.584 and 0.62
wild-type EGFR; concentration 30 nM
  A450: 0.578 and 0.61
wild-type EGFR; concentration 300 nM
  A450: 0.553 and 0.602
wild-type EGFR; concentration 3000 nM
  A450: 0.552 and 0.581
wild-type EGFR; concentration 30000 nM
  A450: 0.395 and 0.423
H460 cells; 2uM
  Inhibitory efficacy: 0.2801 and 0.2884
  inhibition at 2 µM: 34.4%
H460 cells; 4uM
  Inhibitory efficacy: 0.5058 and 0.5573
  inhibition at 4 µM: 48.9%
H460 cells; 8uM
  Inhibitory efficacy: 0.6543 and 0.6301
  inhibition at 8 µM: 64.7%
H460 cells; 16uM
  Inhibitory efficacy: 0.6649 and 0.6664
  inhibition at 16 µM: 69.5%
H460 cells
  IC50: 4.89 ± 0.23 µM
